In publication PMC8216263 (Pharmaceutical Biology, 2021):
Where two headings read alike, the source gives them in different places.

What was measured:
[1] = Urinary excretion of GA and PCA after oral RLQ in healthy subjects; assay type: in vivo, human; conditions: for fraction unbound / dose excreted: human, urine, oral, 8 g; for fraction unbound: urine within 24 h, read-out: Fu (fraction of administered dose excreted in the urine); for dose excreted: abstract summary, read-out: 24 h urine recovery rate
Protocol: In the single-dose study, 8 g of RLQ was administered orally on day 1. A 7-d washout time was designed between single-dose and multiple-dose pharmacokinetic studies. In the multiple-dose study, subjects received multiple doses of RLQ (8 g, t.i.d.) for seven consecutive days from day 8 to day 14 and a single dose of RLQ (8 g) on the morning of day 15. On days 1 and 15, blood samples (3 mL) were collected from the antecubital vein catheter before drug administration and at 0.08, 0.17, 0.33, 0.5, 0.75, 1, 1.5, 2, 3, 4, 6, 8, 12 and 24 h after dosing. Additional pre-dose samples were collected in the morning on days 12, 13 and 14. Urine samples were collected over a 12 h interval before dosing and at the following time intervals thereafter: 0–2, 2–5, 5–8, 8–12 and 12–24 h. All samples were stored at −80 °C until analysis.
(§1) All analytes were extracted from plasma and urine samples by simple protein precipitation extraction method using acetonitrile. Briefly, 5 µL of internal standard solution and 300 μL of acetonitrile were added to the spiked blank matrix (100 μL) and vortexed for 3 min and then centrifuged at 13,000 × g for 10 min. The supernatant was transferred and dried using a flow of nitrogen. The residue was re-dissolved in 100 µL of 10% methanol solution containing 0.1% formic acid. An aliquot of 5 µL solution was injected into the LC-MS/MS system for analysis.
The GA and PCA concentrations were determined using a validated LC-MS/MS method with some modifications (Ma et al. [2015]). The chromatographic separation was performed on an Acquity Ultra Performance LC instrument (Waters, Milford, MA) with a gradient programme in an ACQUITY UPLC BEH C18 column (2.1 mm × 100 mm, 1.7 μm). The gradient programme was performed with the mobile phase (0.3 mL/min) consisting of 0.1% formic acid aqueous solution (A) and acetonitrile (B) as follows: 97% A (0–8.5 min), 60% A (8.7–11 min), 10% A (11.5–13.5 min) and 97% A (14–15 min). The injection volume was 2 µL. The mass spectrometry analysis was performed on an AB Sciex Triple Quad 5500 MS (Framingham, MA) equipped with an ESI source. The quantitative analyses of GA, PCA and chloramphenicol were performed in a negative mode by multiple reaction monitoring (MRM) with the ion transitions of m/z 169.0→125.1, 153.1→109.0 and 321.1→152.1, respectively.
Pharmacokinetic parameters of GA and PCA were estimated with a non-compartmental method using Phoenix WinNonlin version 6.4 (Certara, Princeton, NJ). The peak plasma concentration (Cmax) and time to reach the peak plasma concentration (Tmax) were calculated from the actual plasma concentration data. The area under the plasma concentration-time curve from zero to the last measurable concentration (AUC0–t) was calculated via the linear trapezoidal rule. AUC0–∞ was calculated using the following formula: AUC0–∞ = AUC0–t + Ct/ke, where Ct is the last plasma concentration measured. The terminal elimination half-life (t1/2) was calculated as 0.693/ke, and the total clearance (CL/F) was calculated as dose/AUC0–∞. The accumulation index was calculated as AUCss/AUC0–t.

[2] = rats, ref Ma et al. 2016, cited from earlier work
[3] = Single- and multiple-dose plasma pharmacokinetics of GA and PCA after oral RLQ in healthy subjects; assay type: in vivo, human; conditions: for AUC(0-inf) / AUC(0-t) / Vd/F / k el / half-life: 8 g; for Vd/F: read-out: Vz/F; for k el: read-out: ke (converted)
Protocol: The study protocol was approved by the Ethics Committee of the Second Affiliated Hospital of Tianjin University of Traditional Chinese Medicine. […] Subjects were offered standard meals at 4 and 10 h after dosing. Water was not permitted during the hour before and the hour after dosing, except for 240 mL administered with dosing; additional water intake was allowed at all other times.
In the single-dose study, 8 g of RLQ was administered orally on day 1. A 7-d washout time was designed between single-dose and multiple-dose pharmacokinetic studies. In the multiple-dose study, subjects received multiple doses of RLQ (8 g, t.i.d.) for seven consecutive days from day 8 to day 14 and a single dose of RLQ (8 g) on the morning of day 15. […] Additional pre-dose samples were collected in the morning on days 12, 13 and 14. […] All samples were stored at −80 °C until analysis.
as §1
The chromatographic separation was performed on an Acquity Ultra Performance LC instrument (Waters, Milford, MA) with a gradient programme in an ACQUITY UPLC BEH C18 column (2.1 mm × 100 mm, 1.7 μm). […] The injection volume was 2 µL. The mass spectrometry analysis was performed on an AB Sciex Triple Quad 5500 MS (Framingham, MA) equipped with an ESI source.
The peak plasma concentration (Cmax) and time to reach the peak plasma concentration (Tmax) were calculated from the actual plasma concentration data. The area under the plasma concentration-time curve from zero to the last measurable concentration (AUC0–t) was calculated via the linear trapezoidal rule. AUC0–∞ was calculated using the following formula: AUC0–∞ = AUC0–t + Ct/ke, where Ct is the last plasma concentration measured. […] The accumulation index was calculated as AUCss/AUC0–t.

[4] = both sexes, human, plasma, oral, human plasma, multiple dose RLQ 8 g
[5] = both sexes, human, plasma, oral, human plasma, multiple dose RLQ 8 g, read-out: AUC0–t
[6] = both sexes, human, plasma, oral, human plasma, single dose RLQ 8 g
[7] = both sexes, human, plasma, oral, human plasma, single dose RLQ 8 g, read-out: AUC0–t
[8] = both sexes, human, plasma, oral, multiple dose RLQ 8 g
[9] = both sexes, human, plasma, oral, multiple dose RLQ 8 g, read-out: t1/2 (converted)
[10] = both sexes, human, plasma, oral, single dose RLQ 8 g
[11] = both sexes, human, plasma, oral, single dose RLQ 8 g, read-out: t1/2 (converted)
[12] = both sexes, human, plasma, oral, single dose RLQ 8 g, median (range), read-out: tmax
[13] = both sexes, human, plasma, po, abstract summary, oral RLQ, read-out: half-life
[14] = both sexes, oral, human plasma, multiple dose RLQ 8 g t.i.d. 7 d then single dose, means ± SD, read-out: Cmax
[15] = both sexes, human plasma, single oral dose RLQ 8 g, means ± SD, read-out: Cmax
[16] = human, plasma, oral, single dose RLQ 8 g, female subjects n = 6, read-out: Cmax in women
[17] = human, plasma, oral, single dose RLQ 8 g, male subjects n = 6, read-out: Cmax in men
[18] = multiple dose RLQ 8 g, median (range)

Row | SMILES | fraction unbound ([1]; single dose RLQ 8 g) | dose excreted [1] | amount recovered in urine within 24 h ([1]; single dose RLQ 8 g) | time to absorption into the blood after administration ([3]; abstract summary, oral RLQ) | AUC(0-inf) [3, 4] | AUC(0-t) [3, 5] | AUC(0-inf) [3, 6] | AUC(0-t) [3, 7] | Vd/F [3, 8] | k el [3, 8] | half-life [3, 9] | Vd/F [3, 10] | k el [3, 10] | half-life [3, 11] | tmax [3, 12] | half-life [3, 13] | Cmax [3, 14] | Cmax [3, 15] | Cmax [3, 16] | Cmax [3, 17] | further results
1 | O=C(O)c1cc(O)c(O)c(O)c1 [GA, gallic acid] | ~0.086 | ~10% | 2.48 ± 1.34 mg | ≤ 1 h | 209 ± 63.5 ng·h/mL | 205 ± 62.8 ng·h/mL | 256 ± 74.9 ng·h/mL | 251 ± 74.4 ng·h/mL | 292 ± 113 L | 0.00015 s⁻¹ | 80.4 ± 19.2 min | 241 ± 82.7 L | 0.000147 s⁻¹ | 82.2 ± 22.2 min | 45 min | < 120 min | 118 ± 39.5 ng/mL | 139 ± 49.4 ng/mL | 176 ng/mL | 102 ng/mL | fraction unbound ([1]; multiple dose RLQ 8 g): 0.107; concentration in rat kidney tissue [2]: 1218 ng/g; AUC(0-t) ([3]; female, human, plasma, oral, single dose RLQ 8 g, female subjects, read-out: AUC0–t in women): 301 ± 46.3 ng·h/mL; AUC(0-t) ([3]; male, human, plasma, oral, single dose RLQ 8 g, male subjects, read-out: AUC0–t in men): 201 ± 63.3 ng·h/mL; CL/F ([3]; multiple dose RLQ 8 g): 152 ± 51.6 L/h; tmax [3, 18]: 0.75 (0.75, 1) h; Vz/F and CL/F, females versus males ([3]; p < 0.05): significantly lower levels in females than in males; CL/F ([3]; single dose RLQ 8 g): 124 ± 42.0 L/h
2 | O=C(O)c1ccc(O)c(O)c1 [PCA, protocatechuic acid] | ~0.042 | ~5% | 0.046 ± 0.040 mg | ≤ 1 h | 3.09 ± 0.9 ng·h/mL | 2.81 ± 0.81 ng·h/mL | 3.64 ± 1.35 ng·h/mL | 3.2 ± 1.17 ng·h/mL | 139 ± 46.1 L | 0.000789 s⁻¹ | 15.6 ± 4.8 min | 158 ± 101 L | 0.000672 s⁻¹ | 19.8 ± 8.4 min | 19.8 min | < 120 min | 5.45 ± 1.58 ng/mL | 6.06 ± 2.28 ng/mL | 7.58 ng/mL | 4.54 ng/mL | mean urinary concentration ([1]; first 2 h after administration of RLQ 8 g): ~150 µg/L; unchanged amount that survived the metabolism, % of the total intake ([2]; urinary excretion): ~15.7%; response in human plasma and urine samples ([3]; LC-MS/MS after oral RLQ): relatively high response; accumulation ratio (AUCss/AUC0–t) ([3]; after multiple doses, median (range)): 1.04 (0.56–1.51); CL/F ([3]; multiple dose RLQ 8 g): 379 ± 119 L/h; tmax [3, 18]: 0.33 (0.17, 0.5) h; CL/F ([3]; single dose RLQ 8 g): 337 ± 135 L/h
